According to patent US9663530B2, “5-oxa-2-azabicyclo[2.2.2]OCTAN-4-yl and 5-oxa-2-azabicyclo[2.2.1]heptan-4-yl derivatives” (Hoffmann-La Roche Inc., priority 2014, dated 2017):

Legend:
mouse TAAR1 = mouse TAAR1 (Mus musculus (Mouse), UniProt Q923Y8); experiment: Radioligand binding assay on mouse TAAR1; conditions: mouse TAAR1 (first value of the cell); membranes of HEK-293 cells stably expressing mouse TAAR1; read-out: Ki (μM) mouse/rat
Description: (§1) Construction of TAAR Expression Plasmids and Stably Transfected Cell Lines
(§2) For the construction of expression plasmids the coding sequences of human, rat and mouse TAAR 1 were amplified from genomic DNA essentially as described by Lindemann et al.. The Expand High Fidelity PCR System (Roche Diagnostics) was used with 1.5 mM Mg^2+ and purified PCR products were cloned into pCR2.1-TOPO cloning vector (Invitrogen) following the instructions of the manufacturer. PCR products were subcloned into the pIRESneo2 vector (BD Clontech, Palo Alto, Calif.), and expression vectors were sequence verified before introduction in cell lines.
(§3) HEK293 cells (ATCC # CRL-1573) were cultured essentially as described by Lindemann et al. (2005). For the generation of stably transfected cell lines HEK293 cells were transfected with the pIRESneo2 expression plasmids containing the TAAR coding sequences (described above) with Lipofectamine 2000 (Invitrogen) according to the instructions of the manufacturer, and 24 hrs post transfection the culture medium was supplemented with 1 mg/ml G418 (Sigma, Buchs, Switzerland). After a culture period of about 10 d clones were isolated, expanded and tested for responsiveness to trace amines (all compounds purchased from Sigma) with the cAMP Biotrak Enzyme immunoassay (EIA) System (Amersham) following the non-acetylation EIA procedure provided by the manufacturer.
Radioligand Binding Assay on Mouse TAAR1
(§4) Membrane Preparation and Radioligand Binding.
HEK-293 cells stably expressing mouse TAAR1 were maintained at 37° C. and 5% CO2 in DMEM high glucose medium, containing fetal calf serum (10%, heat inactivated for 30 min at 56° C.), penicillin/streptomycin (1%), and 375 μg/ml geneticin (Gibco). Cells were released from culture flasks using trypsin/EDTA, harvested, washed twice with ice-cold PBS (without Ca^2+and Mg^2+), pelleted at 1,000 rpm for 5 min at 4° C., frozen and stored at −80° C. Frozen pellets were suspended in 20 ml HEPES-NaOH (20 mM, pH 7.4) containing 10 mM EDTA and homogenized with a Polytron (PT 6000, Kinematica) at 14,000 rpm for 20 s. The homogenate was centrifuged at 48,000×g for 30 min at 4° C. Subsequently, the supernatant was removed and discarded, and the pellet resuspended in 20 ml HEPES-NaOH (20 mM, pH 7.4) containing 0.1 mM EDTA using the Polytron (20 s at 14,000 rpm). This procedure was repeated and the final pellet resuspended in HEPES-NaOH containing 0.1 mM EDTA and homogenized using the Polytron. Typically, aliquots of 2 ml membrane portions were stored at −80° C. With each new membrane batch the dissociation constant (Kd) was determined via a saturation curve. The TAAR1 radioligand ^3[H]-(S)-4-[(ethyl-phenyl-amino)-methyl]-4,5-dihydro-oxazol-2-ylamine (described in WO 2008/098857) was used at a concentration equal to the calculated Kd value, that was usually around 0.7 nM, resulting in the binding of approximately 0.5% of the radioligand and a specific binding representing approximately 70% of the total binding. Nonspecific binding was defined as the amount of ^3[H]-(S)-4-[(ethyl-phenyl-amino)-methyl]-4,5-dihydro-oxazol-2-ylamine bound in the presence of 10 μM unlabeled ligand. All compounds were tested at a broad range of concentrations ([…]) in duplicates. The test compounds (20 […]μl/well) were transferred into a 96 deep well plate (TreffLab), and 180 μl of HEPES-NaOH (20 mM, pH 7.4) containing MgCl2 (10 mM) and CaCl2 (2 mM) (binding buffer), 300 μl of the radioligand ^3[H]-(S)-4-[(ethyl-phenyl-amino)-methyl]-4,5-dihydro-oxazol-2-ylamine at a concentration of 3.3×Kd in nM and 500 μl of the membranes (resuspended at […]) added. The 96 deep well plates were incubated for 1 hr at 4° C. Incubations were terminated by rapid filtration through Unifilter-96 plates (Packard Instrument Company) and glass filters GF/C (Perkin Elmer) presoaked for 1 hr in polyethylenimine (0.3%) and washed 3 times with 1 ml of cold binding buffer. […]

rat TAAR1 = rat TAAR1 (Rattus norvegicus (Rat), UniProt Q923Y9); experiment: Radioligand binding assay on rat TAAR1; conditions: rat TAAR1 (second value of the cell); membranes of HEK-293 cells stably expressing rat TAAR1; read-out: Ki (μM) mouse/rat
Chain of rat TAAR1 (Q923Y9 whole entry): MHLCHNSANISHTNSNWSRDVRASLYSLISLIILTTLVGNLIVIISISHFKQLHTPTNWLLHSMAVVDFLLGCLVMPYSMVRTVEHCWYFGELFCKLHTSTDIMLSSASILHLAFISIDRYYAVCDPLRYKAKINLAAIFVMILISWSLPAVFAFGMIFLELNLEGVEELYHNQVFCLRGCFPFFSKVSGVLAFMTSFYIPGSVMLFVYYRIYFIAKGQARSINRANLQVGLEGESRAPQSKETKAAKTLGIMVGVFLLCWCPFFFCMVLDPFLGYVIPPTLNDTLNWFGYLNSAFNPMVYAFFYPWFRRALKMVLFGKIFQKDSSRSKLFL
Description: as §1, §2, §3
Radioligand Binding Assay on Rat TAAR1
as §4
HEK-293 cells stably expressing rat TAAR1 were maintained at 37° C. and 5% CO2 in DMEM high glucose medium, containing fetal calf serum (10%, heat inactivated for 30 min at 56° C.), penicillin/streptomycin (1%), and 375 μg/ml geneticin (Gibco). Cells were released from culture flasks using trypsin/EDTA, harvested, washed twice with ice-cold PBS (without Ca^2+ and Mg^2+), pelleted at 1,000 rpm for 5 min at 4° C., frozen and stored at −80° C. Frozen pellets were suspended in 20 ml HEPES-NaOH (20 mM, pH 7.4) containing 10 mM EDTA and homogenized with a Polytron (PT 6000, Kinematica) at 14,000 rpm for 20 s. The homogenate was centrifuged at 48,000×g for 30 min at 4° C. Subsequently, the supernatant was removed and discarded, and the pellet resuspended in 20 ml HEPES-NaOH (20 mM, pH 7.4) containing 0.1 mM EDTA using the Polytron (20 s at 14,000 rpm). This procedure was repeated and the final pellet resuspended in HEPES-NaOH containing 0.1 mM EDTA and homogenized using the Polytron. Typically, aliquots of 2 ml membrane portions were stored at −80° C. With each new membrane batch the dissociation constant (Kd) was determined via a saturation curve. […] Nonspecific binding was defined as the amount of ^3[H]-(S)-4-[(ethyl-phenyl-amino)-methyl]-4,5-dihydro-oxazol-2-ylamine bound in the presence of 10 μM unlabeled ligand. All compounds were tested at a broad range of concentrations ([…]) in duplicates. The test compounds (20 […]μl/well) were transferred into a 96 deep well plate (TreffLab), and 180 μl of HEPES-NaOH (20 mM, pH 7.4) containing MgCl2 (10 mM) and CaCl2 (2 mM) (binding buffer), 300 μl of the radioligand ^3[H]-(S)-4-[(ethyl-phenyl-amino)-methyl]-4,5-dihydro-oxazol-2-ylamine at a concentration of 3.3×Kd in nM and 500 μl of the membranes (resuspended at 50 μg protein per ml) added. The 96 deep well plates were incubated for 1 hr at 4° C. Incubations were terminated by rapid filtration through Unifilter-96 plates (Packard Instrument Company) and glass filters GF/C (Perkin Elmer) presoaked for 1 hr in polyethylenimine (0.3%) and washed 3 times with 1 ml of cold binding buffer. After addition of 45 μl of Microscint 40 (PerkinElmer) the Unifilter-96 plate was sealed and after 1 hr the ratioactivity counted using a TopCount Microplate Scintillation Counter (Packard Instrument Company).

Chain of mouse TAAR1 (Q923Y8 whole entry): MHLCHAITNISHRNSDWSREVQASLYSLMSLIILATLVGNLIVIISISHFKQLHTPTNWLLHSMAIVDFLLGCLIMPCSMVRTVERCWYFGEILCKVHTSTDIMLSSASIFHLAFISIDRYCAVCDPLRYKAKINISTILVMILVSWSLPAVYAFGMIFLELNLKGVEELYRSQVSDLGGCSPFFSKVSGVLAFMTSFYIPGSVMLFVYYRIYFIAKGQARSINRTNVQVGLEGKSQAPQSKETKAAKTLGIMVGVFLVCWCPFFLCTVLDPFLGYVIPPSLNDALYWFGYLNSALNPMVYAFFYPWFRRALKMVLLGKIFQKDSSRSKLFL

Structure (SMILES)	Ki (mouse TAAR1) [µM]	Ki (rat TAAR1) [µM]
Clc1ccc(Nc2ccc(C[C@]34CN[C@H](CO3)C4)cc2)nc1 [Example 30, 5-Chloro-N-[4-[[(1S,4S)-5-oxa-2-azabicyclo[2.2.1]heptan-4-yl]methyl]phenyl]pyridin-2-amine]	2.55	0.621
FC(F)(F)c1ccc(Nc2ccc(C[C@]34CN[C@H](CO3)C4)cc2)nc1 [Example 31, N-[4-[[(1S,4S)-5-Oxa-2-azabicyclo[2.2.1]heptan-4-yl]methyl]phenyl]-5-(trifluoromethyl)pyridin-2-amine]	0.946	0.163
FC(F)(F)c1cnc(Nc2ccc(C[C@]34CN[C@H](CO3)C4)cc2)cn1 [Example 32, N-[4-[[(1S,4S)-5-Oxa-2-azabicyclo[2.2.1]heptan-4-yl]methyl]phenyl]-5-(trifluoromethyl)pyrazin-2-amine]	> 10	0.854
FC(F)(F)c1cnc(Nc2ccc(C[C@]34CN[C@H](CO3)C4)cc2)nc1 [Example 33, N-[4-[[(1S,4S)-5-Oxa-2-azabicyclo[2.2.1]heptan-4-yl]methyl]phenyl]-5-(trifluoromethyl)pyrimidin-2-amine]	5.8	0.881
FC(F)(F)c1nccc(Nc2ccc(C34CCC(CO3)NC4)cc2)n1 (stereo not drawn) [Example 36, N-[4-(5-Oxa-2-azabicyclo[2.2.2]octan-4-yl)phenyl]-2-(trifluoromethyl)pyrimidin-4-amine]	0.0471	1.97
CC(C)c1cc(C(=O)Nc2ccc(C[C@]34CN[C@H](CO3)C4)cc2)[nH]n1 [Example 38, 3-Isopropyl-N-[4-[[(1S,4S)-5-oxa-2-azabicyclo[2.2.1]heptan-4-yl]methyl]phenyl]-1H-pyrazole-5-carboxamide]	10.1	0.441
CCCc1n[nH]c(C(=O)Nc2ccc(C[C@@]34CN[C@@H](CO3)C4)cc2)c1Cl [Example 41, 4-Chloro-N-[4-[[(1R,4R)-5-oxa-2-azabicyclo[2.2.1]heptan-4-yl]methyl]phenyl]-3-propyl-1H-pyrazole-5-carboxamide]	0.0183	0.066
Clc1ccc(Nc2ccc(C[C@@]34CN[C@@H](CO3)C4)cc2)nc1 [Example 42, 5-Chloro-N-[4-[[(1R,4R)-5-oxa-2-azabicyclo[2.2.1]heptan-4-yl]methyl]phenyl]pyridin-2-amine]	0.0158	0.355
O=C(Nc1ccc(C[C@@]23CN[C@@H](CO2)C3)cc1)Nc1cccc(C(F)(F)F)c1 [Example 44, 1-[4-[[(1R,4R)-5-Oxa-2-azabicyclo[2.2.1]heptan-4-yl]methyl]phenyl]-3-[3-(trifluoromethyl)phenyl]urea]	0.0046	0.0108

Other lines, results leading:

Ki (mouse TAAR1) [µM]	Ki (rat TAAR1) [µM]	Structure (SMILES)
0.0022	0.0551	O=C(Nc1ccc(C[C@@]23CN[C@@H](CO2)C3)cc1)c1cccc(Cl)c1 [Example 39, 3-Chloro-N-[4-[[(1R,4R)-5-oxa-2-azabicyclo[2.2.1]heptan-4-yl]methyl]phenyl]benzamide]
0.0522	0.0987	O=C(Nc1ccc(C[C@@]23CN[C@@H](CO2)C3)cc1)c1ccnc(C(F)(F)F)c1 [Example 40, N-[4-[[(1R,4R)-5-Oxa-2-azabicyclo[2.2.1]heptan-4-yl]methyl]phenyl]-2-(trifluoromethyl)pyridine-4-carboxamide]
0.0124	0.202	O=C(Nc1ccc(C[C@@]23CN[C@@H](CO2)C3)cc1)Nc1ccccc1Cl [Example 43, 1-(2-Chlorophenyl)-3-[4-[[(1R,4R)-5-oxa-2-azabicyclo[2.2.1]heptan-4-yl]methyl]phenyl]urea]
0.0061	0.0212	O=C(Nc1ccc(C[C@@]23CN[C@@H](CO2)C3)cc1)c1ccc(OCC2CC2)cc1 [Example 45, 4-(Cyclopropylmethoxy)-N-[4-[[(1R,4R)-5-oxa-2-azabicyclo[2.2.1]heptan-4-yl]methyl]phenyl]benzamide]
0.0142	0.448	CCOc1ccc(C(=O)Nc2ccc(C[C@@]34CN[C@@H](CO3)C4)cc2)cn1 [Example 46, 6-Ethoxy-N-[4-[[(1R,4R)-5-oxa-2-azabicyclo[2.2.1]heptan-4-yl]methyl]phenyl]pyridine-3-carboxamide]
0.0104	0.0104	O=C(Nc1ccc(C[C@@]23CN[C@@H](CO2)C3)cc1)c1ccc(OCC(F)(F)F)nc1 [Example 47, N-[4-[[(1R,4R)-5-Oxa-2-azabicyclo[2.2.1]heptan-4-yl]methyl]phenyl]-6-(2,2,2-trifluoroethoxy)pyridine-3-carboxamide]
0.0147	0.112	O=C(Nc1ccc(C[C@@]23CN[C@@H](CO2)C3)cc1)c1[nH]nc(C2CC2)c1Cl [Example 48, 4-Chloro-3-cyclopropyl-N-[4-[[(1R,4R)-5-oxa-2-azabicyclo[2.2.1]heptan-4-yl]methyl]phenyl]-1H-pyrazole-5-carboxamide]
0.0067	0.142	CCOc1ccc(C(=O)Nc2ccc(C[C@@]34CN[C@@H](CO3)C4)cc2)cc1 [Example 49, 4-Ethoxy-N-[4-[[(1R,4R)-5-oxa-2-azabicyclo[2.2.1]heptan-4-yl]methyl]phenyl]benzamide]
0.226	1.24	CCc1ncc(C(=O)Nc2ccc(C[C@@]34CN[C@@H](CO3)C4)cc2)cn1 [Example 50, 2-Ethyl-N-[4-[[(1R,4R)-5-oxa-2-azabicyclo[2.2.1]heptan-4-yl]methyl]phenyl]pyrimidine-5-carboxamide]
